Reference: patent publication US5914343A, “Compounds and methods for inhibiting hyper-proliferative cell growth” (Sugen, Inc., priority 1997, dated 1999)
Values after ≈ are worked out from the molar mass of the structure shown. Counter-ions that a name gives are not always drawn. Like-named read-outs stand apart in the source and are kept apart here.

Columns and labels:
[1] = Solubility of compounds; assay type: physicochemical
[2] = system: C6 glioma cells; assay: In vivo tumor inhibition: subcutaneous Xenograft model with C6 glioma cells in mice; design: species or system mice (BALB/c, nu/nu); conditions: for Inhibition of tumor growth (FIGS. 1, 2, and 3): IP injection, 15 mg/kg/day, AA10 and AA12 in DMSO, AA14 in PBS
Method: In vivo tumor inhibition was measured using a subcutaneous Xenograft model.
C6 cells were maintained in Ham's F10 supplemented with 10% fetal bovine serum (FBS) and 2 mM glutamine (GLN). Cells were harvested at or near confluence with 0.05% Trypsin-EDTA and pelleted at 450×g for 10 min. Pellets were resuspended in sterile PBS or media (without FBS) to a particular concentration and the cells were implanted into the hindflank of mice. Tumor growth was measured over 3 to 6 weeks using venier calipers. Tumor volumes were calculated as a product of length x width x height unless otherwise indicated. AA10 and AA12 were solubilized in 50-100 μL vehicle (DMSO) while AA14 was dissolved in PBS (pH 7.4). The compounds were delivered by IP injection at 15 mg/kg/day.
The compound was dissolved in phosphate buffered saline and the animals were treated with 30 mg/kg/day and 50 mg/kg/day.

[3] = system: mice (BALB/c); assay: Toxicity studies (LD50, LD10, organ damage) in mice; assay type: in vivo
Method: (§1) Toxicity studies were carried out in animal models for AA10, AA12 and AA14. AA10 and AA12 were solubilized in DMSO and AA14 was dissolved in PBS (pH 7.4). The dosage resulting in a 50% mortality rate (LD50) and a 10% mortality rate (LD10) was determined as described below.
(§2) Five mice (BALB/c) were treated with different concentrations of compound. […] The LD50 was calculated from a plot of % mortality versus dose (log M) using a four parameter logistic equation.
(§3) At the end of the experiment an animal from each study administered with 100 mg/kg of compound was sacrificed and pathologically analyzed for organ damage.

[4] = as above; assay type: in vivo; conditions: mouse, in vivo
Method: as §1, §2, §3

[5] = system: C6 cells; assay: In vitro tumor inhibition: anchorage-dependent C6 cell growth assay (sulforhodamine B); assay type: cell-based; conditions: for IC50: Rattus norvegicus, C6 cells, 2000 cells/well, 4 days, 37° C., SRB stain
Method: The assay measures protein content of acid-fixed cells using the counterion binding dye sulforhodamine B (SRB, Sigma).
AA10 and AA12 were solubilized in DMSO (Sigma, cell culture grade), and AA14 was dissolved in PBS (pH 7.4), the compounds were diluted into appropriate growth medium at two-fold the desired final assay concentration.
Compound (100 μL) was added to 96-well plates containing attached cellular monolayers C6 cells (2000 cells/well in 100 μL). After 4 days (37° C., 5% CO2) the monolayers were washed 3 times with PBS and fixed with 200 μL ice-cold 10% trichloroacetic acid (TCA) (Fisher Scientific), and kept at 4° C. for 60 minutes. The TCA was removed and the fixed monolayers were washed 5 times with tap water and allowed to dry completely at room temperature on absorbent paper. The cellular protein was stained for 10 min with 100 μL 0.4% SRB dissolved in 1% acetic acid. After 5 washes with tap water, the dye was solubilized in 10 mM Tris base (100 μL per well) and absorbance read at 570 nm on a Dynatech plate reader model MR5000. Growth inhibition data are expressed as aL percentage of absorbance detected in control wells which were treated with 0.4% DMSO or PBS alone. […] IC50 values were determined using a four parameter curve fit function.

[6] = Stability compared with leflunomide; assay type: physicochemical
[7] = system: autoimmune animal diseases; conditions: Bartlett R. R. et al., Agents and Actions 32:10-21 (1991); cited from earlier work
[8] = organic solvent or mixture, in DMSO, read-out: Solubility in DMSO
[9] = mice (BALB/c), observed 7 to 14 days after last dose, AA10 and AA12 in DMSO, AA14 in PBS

With CC(O)=C(C#N)C(=S)Nc1ccc(C(F)(F)F)cc1.[Na] the “Solubility in PBS (in words)” value ([1]; AA14 compared with leflunomide and its hydroxycrotonamide metabolite) was “soluble in PBS”, the solubility ([1]; aqueous buffer, in PBS (phosphate buffered saline at pH 7.4), read-out: Solubility in PBS) was 275 mg/mL and the “Tumor inhibition at higher AA14 concentrations (FIG. 4)” value ([2]; 30 mg/kg/day and 50 mg/kg/day in phosphate buffered saline) was “increased tumor inhibition”. The “Inhibition of tumor growth (FIGS. 1, 2, and 3)” value (“Inhibition of tumor growth” for short) [2] was “inhibit tumor growth”, the LD10 ([3]; mouse, in vivo) was 120 mg/kg and the LD50 [4] was 145 mg/kg.

With Cc1oncc1C(=S)Nc1ccc(C(F)(F)F)cc1 [AA10, 5-Methyl-4-(4-trifluoromethylphenyl)aminothiocarbonylisoxazole] the “Solubility in ethanol compared with leflunomide” value ([1]; in ethanol) was “more soluble in ethanol”, the solubility [1, 8] was at least 1000 mg/mL and the “Inhibition of tumor growth” value [2] was “inhibit tumor growth”. The LD10 [3, 9] was 77 mg/kg, the LD50 [4, 9] was 96 mg/kg and the “Inhibition of hyper-proliferative cell growth (in words)” value [5] was “able to inhibit hyper-proliferative cell growth”. For the same compound, the IC50 ([5]; 96 h) was 2 µM and the “Stability compared with leflunomide” value [6] was “appears to be more stable than leflunomide”.

In the case of CC(O)=C(C#N)C(=S)Nc1ccc(C(F)(F)F)cc1 [AA12, 1-Cyano-2-hydroxy-1-(4-trifluoromethylphenyl)aminothiocarbonylpropene], the solubility [1, 8] is reported as 400 mg/mL (≈ 1400 mM), the “Inhibition of tumor growth” value [2] is reported as “inhibit tumor growth” and the LD10 [3, 9] is reported as 62 mg/kg. The LD50 [4, 9] was 79 mg/kg, the “Inhibition of hyper-proliferative cell growth (in words)” value [5] was “able to inhibit hyper-proliferative cell growth” and the IC50 ([5]; 96 h) was 0.8 µM.

For CC(O)=C(C#N)S(=O)(=O)Nc1ccc(C(F)(F)F)cc1 [AA17, 1-Cyano-2-hydroxy-1-(4-trifluoromethylphenylaminosulfonyl)propene], the IC50 ([5]; 96 h) was 30 µM.

For CC(O)=C(C#N)S(=O)(=O)Nc1ccc(C(F)(F)F)cc1 [AA18, 1-cyano-2-hydroxy-1-(4-trifluoromethylphenylaminosulfonyl)propene sodium salt], the IC50 ([5]; C6, 96 h) was 24 µM.

For N#CC(C(=S)Nc1ccc(C(F)(F)F)cc1)=C(O)C1CC1 [Compound 3, 3-cyclopropyl-3-hydroxy-2-[(4-trifluoromethylphenyl)aminothiocarbonyl]acrylonitrile], the IC50 ([5]; 96 h) was under 1 µM.

C=C(C)C(O)=C(C#N)C(=S)Nc1ccc(C(F)(F)F)cc1 [Compound 6, 3-hydroxy-3-(propen-2-yl)-2-[[4-(trifluoro-methyl)-phenyl]aminothiocarbonyl]acrylonitrile] gave an IC50 ([5]; 96 h) of 31.2 µM.

CC(O)=C(C#N)C(=S)Nc1ccc(F)cc1Br [Compound 7, 3-hydroxy-3-methyl-2-[(2-bromo-4-fluorophenyl)aminothiocarbonyl]acrylonitrile] gave an IC50 ([5]; 96 h) of 36.7 µM.

Work on CC(O)=C(C#N)C(=S)Nc1ccccc1C(F)(F)F [Compound 12, 3-hydroxy-3-methyl-2-[[2-(trifluoromethyl)-phenyl]aminothiocarbonyl]acrylonitrile] yielded an IC50 ([5]; 96 h) of over 100 µM.

Work on CC(O)=C(C#N)C(=S)Nc1cccc(C(F)(F)F)c1 [Compound 17, 3-hydroxy-3-methyl-2-[[3-(trifluoromethyl)phenyl]aminothiocarbonyl]acrylonitrile] yielded an IC50 ([5]; 96 h) of 15.2 µM.

CC(O)=C(C#N)C(=S)Nc1ccc(S(=O)(=O)N2CCCCC2)cc1 [Compound 22, 3-hydroxy-3-methyl-2-[[4-(piperidine-1-sulfonyl)-phenyl]aminothiocarbonyl]acrylonitrile] showed an IC50 ([5]; 96 h) of 24.3 µM.

CC(O)=C(C#N)C(=S)Nc1ccc(S(N)(=O)=O)cc1 [Compound 27, 3-hydroxy-3-methyl-2-[[4-(aminosulfonyl)phenyl]aminothiocarbonyl]acrylonitrile] gave an IC50 ([5]; 96 h) of over 20 µM.

CC(O)=C(C#N)C(=S)Nc1cccc(Cl)c1Cl [Compound 32, 3-hydroxy-3-methyl-2-[(2,3-dichlorophenyl)aminothiocarbonyl]acrylonitrile] showed an IC50 ([5]; 96 h) of 35.3 µM.

CC(O)=C(C#N)C(=S)Nc1ccc(Cl)c(Cl)c1 [Compound 37, 3-hydroxy-3-methyl-2-[(3,4-dichlorophenyl)-aminothiocarbonyl]acrylonitrile] showed an IC50 ([5]; 96 h) of 6.1 µM.

CC(O)=C(C#N)C(=S)Nc1ccc(Cl)cc1Cl [Compound 42, 3-hydroxy-3-methyl-2-[(2,4-dichlorophenyl)aminothiocarbonyl]acrylonitrile] gave an IC50 ([5]; 96 h) of 53.3 µM.

For Cc1oncc1C(=O)Nc1ccc(C(F)(F)F)cc1 [leflunomide, 5-methylisoxazole-4 carboxylic acid-(4-trifluromethyl)-anilide, reference compound], the “Preventing and curing autoimmune animal diseases” value [7] is given as “very effective in preventing and curing several autoimmune animal diseases”.
